Experimental findings from US20220348572A1, “BRIDGED HETEROCYCLYL-SUBSTITUTED PYRIMIDINE COMPOUND, PREPARATION METHOD THEREFOR, AND PHARMACEUTICAL USE THEREOF” (The National Institutes of Pharmaceutical R&D Co., Ltd., priority 2019, published 2022) are described below.

Each structure is given as a SMILES string.

T1 sequence (P23458 866-1154 limits assumed): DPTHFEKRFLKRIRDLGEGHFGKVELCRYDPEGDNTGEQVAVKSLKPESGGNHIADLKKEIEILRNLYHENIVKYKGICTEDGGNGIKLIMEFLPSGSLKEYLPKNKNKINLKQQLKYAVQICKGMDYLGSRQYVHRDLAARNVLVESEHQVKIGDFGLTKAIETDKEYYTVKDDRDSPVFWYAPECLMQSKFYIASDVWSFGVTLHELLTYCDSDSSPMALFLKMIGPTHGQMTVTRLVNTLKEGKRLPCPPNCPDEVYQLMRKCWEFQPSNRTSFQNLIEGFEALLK

One test has as its target T1, JAK1 kinase (Homo sapiens, UniProt P23458).
T1 construct: purchased Invitrogen PV4744
Description: In vitro inhibitory activity on JAK1 kinase (ADP-Glo Kinase Assay). The class given is biochemical. The conditions noted are these: JAK1 kinase 4 nM, 1 mM ATP. A digest of the protocol: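 JAK1 (4 nM final) preincubated with compound 15 min at 25° C., then substrate mix (1 mM ATP, IRS1 0.05 mg/ml) added for 60 min at 25° C. ADP-Glo luminescence read-out; top concentration 10 μM, 3-fold, 10 points, duplicates; IC50 reported in ranged classes.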
Compound `Cn1cc(Nc2ncc(F)c(C3=CC4CCC(C3)N4C(=O)NCC#N)n2)cn1` (stereo not shown) [Compound 11, N-(cyanomethyl)-3-(5-fluoro-2-((1-methyl-1H-pyrazol-4-yl)amino)pyrimidin-4-yl)-8-azabicyclo[3.2.1]oct-2-ene-8-carboxamide] yielded an IC50 of less than 100 nM.

In the case of `Cn1cc(Nc2nccc(C3=CC4CCC(C3)N4C(=O)NCC#N)n2)cn1` (stereo not shown) [Compound 2, N-(cyanomethyl)-3-(2-((1-methyl-1H-pyrazol-4-yl)amino)pyrimidin-4-yl)-8-azabicyclo[3.2.1]oct-2-ene-8-carboxamide], the IC50 was less than 100 nM. The same measure, in the same setting: the result for `Cn1cc(Nc2nccc(C3=CC4CCC(C3)N4C(=O)[C@@H]3C[C@H]3C#N)n2)cn1` (stereo partly drawn) [Compound 47, (1R,2R)-2-(3-(2-((1-methyl-1H-pyrazol-4-yl)amino)pyrimidin-4-yl)-8-azabicyclo[3.2.1]oct-2-ene-8-formyl)cyclopropane-1-carbonitrile] reads 100 to 300 nM. As for `Cn1cc(Nc2ncc(S(C)(=O)=O)c(C3=CC4CCC(C3)N4C(=O)NCC(F)(F)F)n2)cn1` (stereo not shown) [Compound 34, 3-(2-((1-methyl-1H-pyrazol-4-yl)amino)-5-(methylsulfonyl)pyrimidin-4-yl)-N-(2,2,2-trifluoroethyl)-8-azabicyclo[3.2.1]oct-2-ene-8-carboxamide], the IC50 is more than 1000 nM. The same measure, in the same setting: under `Cn1cc(Nc2nccc(C3=CC4CCC(C3)N4C(=O)C3CC3C(F)(F)F)n2)cn1` (stereo not shown) [Compound 49, (3-(2-((1-methyl-1H-pyrazol-4-yl)amino)pyrimidin-4-yl)-8-azabicyclo[3.2.1]oct-2-en-8-yl)(2-(trifluoromethyl)cyclopropyl)methanone] stands less than 100 nM; under `Cn1cc(Nc2nccc(C3=CC4CCC(C3)N4C(=O)CC(F)(F)F)n2)cn1` (stereo not shown) [Compound 65, 3,3,3-trifluoro-1-(3-(2-((1-methyl-1H-pyrazol-4-yl)amino)pyrimidin-4-yl)-8-azabicyclo[3.2.1]oct-2-en-8-yl)-1-acetone], 100 to 300 nM; under `Cn1cc(Nc2nccc(C3=CC4CCC(C3)N4C(=O)c3ccc(C(F)(F)F)cc3)n2)cn1` (stereo not shown) [Compound 16, (3-(2-((1-methyl-1H-pyrazol-4-yl)amino)pyrimidin-4-yl)-8-azabicyclo[3.2.1]oct-2-en-8-yl)(4-(trifluoromethyl)phenyl)methanone], more than 1000 nM. The same measure, in the same setting: under `Cn1cc(Nc2nccc(C3=CC4CCC(C3)N4C(=O)C(F)(F)C3CC3)n2)cn1` (stereo not shown) [Compound 75, 2-cyclopropyl-2,2-difluoro-1-(3-(2-((1-methyl-1H-pyrazol-4-yl)amino)pyrimidin-4-yl)-8-azabicyclo[3.2.1]oct-2-en-8-yl)ethan-1-one] stands 100 to 300 nM. Still for that read-out and setting: under `Cn1cc(Nc2ncc(C(F)(F)F)c(C3=CC4CCC(C3)N4C(=O)NCC(F)(F)F)n2)cn1` (stereo not shown) [Compound 25, 3-(2-((1-Methyl-1H-pyrazol-4-yl)amino)-5-(trifluoromethyl)pyrimidin-4-yl)-N-(2,2,2-trifluoroethyl)-8-azabicyclo[3.2.1]oct-2-ene-8-carboxamide] stands 300 to 1000 nM; under `Cn1cc(Nc2nccc(C3=CC4CCC(C3)N4C(=O)N3CCC(C(F)(F)F)C3)n2)cn1` (stereo not shown) [Compound 9, (3-(2-((1-methyl-1H-pyrazol-4-yl)amino)pyrimidin-4-yl)-8-azabicyclo[3.2.1]oct-2-en-8-yl)(3-(trifluoromethyl)pyrrolidin-1-yl)methanone], more than 1000 nM; under `C#CCC(=O)N1C2C=C(c3ccnc(Nc4cnn(C)c4)n3)CC1CC2` (stereo not shown) [Compound 53, 1-(3-(2-((1-methyl-1H-pyrazol-4-yl)amino)pyrimidin-4-yl)-8-azabicyclo[3.2.1]oct-2-en-8-yl)but-3-yn-1-one], more than 1000 nM. In the case of `Cn1cc(Nc2ncc(F)c(C3=CC4CCC(C3)N4C(=O)NCC(F)(F)F)n2)cn1` (stereo not shown) [Compound 12, 3-(5-fluoro-2-((1-methyl-1H-pyrazol-4-yl)amino)pyrimidin-4-yl)-N-(2,2,2-trifluoroethyl)-8-azabicyclo[3.2.1]oct-2-ene-8-carboxamide], the IC50 was less than 100 nM. `Cn1cc(Nc2nccc(C3=CC4CCC(C3)N4C(=O)C3CCC(F)(F)C3)n2)cn1` (stereo not shown) [Compound 70, (3,3-difluorocyclopentyl)(3-(2-((1-methyl-1H-pyrazol-4-yl)amino)pyrimidin-4-yl)-8-azabicyclo[3.2.1]oct-2-en-8-yl)methanone] gave an IC50 of less than 100 nM. For the compound `Cn1cc(Nc2nccc(C3=CC4CCC(C3)N4CC3(C)COC3)n2)cn1` (stereo not shown) [Compound 87, N-(1-methyl-1H-pyrazol-4-yl)-4-(8-((3-methyloxetan-3-yl)methyl)-8-azabicyclo[3.2.1]oct-2-en-3-yl)pyrimidin-2-amine], the half-maximal inhibitory concentration (IC50) was more than 1000 nM. On the same count and under the same terms, under `Cn1cc(Nc2nccc(C3=CC4CCC(C3)N4C(=O)C3(C)COC3)n2)cn1` (stereo not shown) [Compound 13, (3-(2-((1-methyl-1H-pyrazol-4-yl)amino)pyrimidin-4-yl)-8-azabicyclo[3.2.1]oct-2-en-8-yl)(3-methyloxetan-3-yl)methanone] stands more than 1000 nM. On the same count and under the same terms, the result for `Cn1cc(Nc2ncc(F)c(C3=C[C@@H]4CC[C@H](C3)N4C(=O)NCC(F)(F)F)n2)cn1` (single isomer, unassigned) [Compound 12-a] reads less than 100 nM; that for `Cn1cc(Nc2ncc(F)c(C3=C[C@H]4CC[C@@H](C3)N4C(=O)NCC(F)(F)F)n2)cn1` [Compound 12-b, (1R,5S)-3-(5-fluoro-2-((1-methyl-1H-pyrazol-4-yl)amino)pyrimidin-4-yl)-N-(2,2,2-trifluoroethyl)-8-azabicyclo[3.2.1]oct-2-ene-8-carboxamide], less than 100 nM. The compound `CCn1cc(Nc2nccc(C3=CC4CCC(C3)N4C(=O)[C@@H]3CC3(F)F)n2)cn1` (stereo partly drawn) [Compound 45, ((S)-2,2-Difluorocyclopropyl)(3-(2-((1-ethyl-1H-pyrazol-4-yl)amino)pyrimidin-4-yl)-8-azabicyclo[3.2.1]oct-2-en-8-yl)methanone] showed an IC50 of 100 to 300 nM.

Regarding `NC(=O)C1(n2cc(Nc3nccc(C4=CC5CCC(C4)N5C(=O)[C@@H]4CC4(F)F)n3)cn2)CC1` (stereo partly drawn) [Compound 39, 1-(4-((4-(8-((S)-2,2-Difluorocyclopropane-1-carbonyl)-8-azabicyclo[3.2.1]oct-2-en-3-yl)pyrimidin-2-yl)amino)-1H-pyrazol-1-yl)cyclopropane-1-carboxamide], the IC50 was more than 1000 nM.

Another test addresses T2, TYK2 kinase (Homo sapiens, UniProt P29597).
T2 sequence (P29597 897-1187 limits assumed): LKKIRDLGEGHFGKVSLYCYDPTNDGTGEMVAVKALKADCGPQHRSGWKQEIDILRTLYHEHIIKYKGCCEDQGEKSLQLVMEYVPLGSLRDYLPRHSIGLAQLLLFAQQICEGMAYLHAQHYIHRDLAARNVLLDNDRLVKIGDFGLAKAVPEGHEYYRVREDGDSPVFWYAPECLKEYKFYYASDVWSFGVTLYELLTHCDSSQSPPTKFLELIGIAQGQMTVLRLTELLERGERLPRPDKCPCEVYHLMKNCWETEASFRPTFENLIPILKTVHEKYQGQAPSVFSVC
Description: In vitro inhibitory activity on Tyk2 kinase (ADP-Glo Kinase Assay). In kind it is biochemical. The conditions noted are these: TYK2 kinase 4 nM, 1 mM ATP. Here is the method: Test Example 2: Determination of In Vitro Inhibitory Activity of the Compounds of the Present Invention on Tyk2 Kinase Experimental materials: TYK2 (Invitrogen, PV4790), ATP (Promega, V915B), ADP-Glo Kinase Assay (Promega, V9101), IRS1 (Signalchem, 140-58-1000). Sample preparation: The compounds of the present invention and the control product were dissolved in DMSO solvent respectively to formulate into 10 mM initial liquid. The maximum concentration of the compound was 10 μM, 3-fold dilution, 10 concentration gradients, and duplicate wells for each concentration gradient. Experimental process: 0.1 μL of the compound to be tested was transferred into a 384 reaction plate (PE, 6007290) via Echo and centrifuged at 1000 rpm/min for 1 min. 5 μL TYK2 kinase (final concentration of 4 nM) was transferred into the 384 reaction plate, which was then centrifuged at 1000 rpm/min for 1 min, and incubated at 25° C. for 15 min. 5 μL substrate mixture (1 mM ATP, IRS1 0.05 mg/ml, kinase buffer solution) was transferred into the 384 reaction plate, which was then centrifuged at 1000 rpm/min for 1 min, and incubated at 25° C. for 60 min. 10 μL ADP-Glo was transferred into the 384 reaction plate, which was then centrifuged at 1000 rpm/min for 1 min, and incubated at 25° C. for 40 min. 20 μL test solution was transferred into the 384 reaction plate, which was centrifuged at 1000 rpm/min for 1 min and incubated at 25° C. for 40 min. RLU (Relative luminescence unit) signal was read by using an Envision multifunctional plate reader. The signal intensity was used to characterize the degree of the kinase activity. […] IC50 value of 0-100 nM is shown as A, IC50 value of 100-300 nM is shown as B, IC50 value of 300-1000 nM is shown as C, and IC50 value which is greater than 1000 nM is shown as D. NT means not tested.
In turn, `Cn1cc(Nc2ncc(F)c(C3=CC4CCC(C3)N4C(=O)NCC#N)n2)cn1` (stereo not shown) [Compound 11, N-(cyanomethyl)-3-(5-fluoro-2-((1-methyl-1H-pyrazol-4-yl)amino)pyrimidin-4-yl)-8-azabicyclo[3.2.1]oct-2-ene-8-carboxamide] returned an IC50 of less than 100 nM.

In turn, `Cn1cc(Nc2nccc(C3=CC4CCC(C3)N4C(=O)NCC#N)n2)cn1` (stereo not shown) [Compound 2, N-(cyanomethyl)-3-(2-((1-methyl-1H-pyrazol-4-yl)amino)pyrimidin-4-yl)-8-azabicyclo[3.2.1]oct-2-ene-8-carboxamide] registered a 50% inhibitory concentration (IC50) of less than 100 nM. On the same count and under the same terms, the result for `Cn1cc(Nc2ncc(F)c(C3=CC4CCC(C3)N4C(=O)NCC(F)(F)F)n2)cn1` (stereo not shown) [Compound 12, 3-(5-fluoro-2-((1-methyl-1H-pyrazol-4-yl)amino)pyrimidin-4-yl)-N-(2,2,2-trifluoroethyl)-8-azabicyclo[3.2.1]oct-2-ene-8-carboxamide] reads less than 100 nM.
